This is an account of results in the NIST ThermoML archive (doi:10.1021/je049903o).

Numbers after ± are expanded uncertainties.

The conditions of this series: 298.15 K; 101.33 kPa; Liquid.
Turning to `CCCCCCCCCC` [decane], the mass density is on record as 726.357 ± 0.83 kg/m3. Next, `COCCOCCOCCOC` [2,5,8,11-tetraoxadodecane]: 980.625 ± 0.52 kg/m3. With `COCCOCCOCCOCCOC` [2,5,8,11,14-pentaoxapentadecane], the mass density is 1007.12 ± 0.53 kg/m3. Regarding `CCCCCCCCCCCCCC` [tetradecane], the mass density was found to be 759.274 ± 0.51 kg/m3.

Regarding `CCCCCCC` [heptane], the mass density is 679.542 ± 0.45 kg/m3. For `CCCCCCCC` [octane], the mass density is 698.548 ± 0.53 kg/m3.
